Experimental data as given in patent US7817840B2, “Predicting hepatotoxicity using cell based assays” (Cytokinetics, Inc., priority 2003, dated 2010).

Tests used:
Primary rat hepatocytes = assay: MTS/PMS cell viability (hepatotoxicity) assay, 24-hour exposure; format: cell-based; conditions: Hepatocyte, 9-point dilution series, read-out: IC50 (cell viability, formazan absorbance as percent of untreated control)
Description: To measure the viability of hepatocytes after plating, an aqueous CellTiter Non-radioactive Cell Proliferation Assay may be used (Promega, Madison, Wis.). This assay can also be used to measure the hepatoxicity of a test compound.
In one example of the assay, hepatoxicity is determined by assaying rat hepatocytes for viability following a 24-hour exposure to a 9-point dilution series of compound (to allow assessment of dose). Cell viability is determined by measuring the absorbance of formazon, a product formed by the bioreduction of MTS/PMS, commercially available reagents. […]
With reference to FIG. 6, in a sterile 2 mL v-bottom assay block, dispense 2.5 μl of compound at 400× highest desired concentration to wells in column 3, rows B through G. (six different compounds per block, one for each row, edge wells are not used due to evaporation). […] Next, add 250 μL of media containing 0.2% Triton X-100 to column 2, rows E, F, and G. ODs (optical density or absorbance) from this well will be used to subtract out for background absorbance of dead cells and vehicle. […]
Day 3—MTS Addition and OD Reading
A. After 24 hours of incubation with drug, remove plates from incubator and add 40 μl MTS/PMS to each well. […] Read ODs at 490 nm after a 5 second shaking cycle in a ninety-six well spectrophotometer. […]

bile flow = conditions: rats; cited from earlier work
[1] = system: human hepatoma cell line HepG2; conditions: HepG2 cells incubated with compound; previous studies; cited from earlier work

Compound	Nile Red binding (lipid accumulation) [1]	also measured
O=c1ccc2ccccc2o1 [Coumarin]		IC50 (Primary rat hepatocytes): ~53 µM
C=C1[C@@H](C)[C@H]2[C@H](Cc3ccccc3)NC(=O)[C@]23OC(=O)/C=C/[C@H](O)CCC[C@@H](C)C/C=C/[C@H]3[C@@H]1O [cytochalasin B]		effect on bile flow (bile flow): prompt arrest of bile flow
CCSCC[C@H](N)C(=O)O [ethionine]	increased Nile Red binding	
CCCC(CCC)C(=O)O [valproic acid]	increased Nile Red binding	
estrogen	increased Nile Red binding	
